Measurements from PubChem BioAssay AID330 (DTP/NCI, 2004).
“And” between values parts separate entries of the source, which are not always exact repeats. Equal entries are not always repeated. Toxic doses and inconclusive results are not listed. The calls were made as follows: active = survival T/C of 150% or more; inactive = T/C below 125% in these data.

Test system: P388 leukemia ip, CD2F1 mice, survival T/C
Assay: NCI In Vivo Anticancer Drug Screen. Data for tumor model P388 Leukemia (intraperitoneal) in CD2F1 (CDF1) mice
Conditions: endpoint: median survival time, higher = longer survival
Procedure, shortened: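 Mice carrying the transplanted tumor received test compound or vehicle. Survival was recorded in each group, and the value is the treated-group measurement divided by that of the vehicle-treated control group.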

[1] = dose: 50.0 mg/kg/injection, schedule: Q01DX005 (ip), vehicle: Klucel (hydroxypropylcellulose) (HPC)
[2] = dose: 100.0 mg/kg/injection, schedule: Q01DX005 (ip), vehicle: Klucel (hydroxypropylcellulose) (HPC)
[3] = dose: 200.0 mg/kg/injection, schedule: Q01DX005 (ip), vehicle: Klucel (hydroxypropylcellulose) (HPC)
[4] = dose: 60.0 mg/kg/injection, schedule: Q01DX005 (ip), vehicle: saline with Tween-80
[5] = dose: 120.0 mg/kg/injection, schedule: Q01DX005 (ip), vehicle: saline with Tween-80
[6] = dose: 240.0 mg/kg/injection, schedule: Q01DX005 (ip), vehicle: saline with Tween-80
[7] = dose: 50.0 mg/kg/injection, schedule: Q01DX005 (ip), vehicle: saline with Tween-80
[8] = dose: 100.0 mg/kg/injection, schedule: Q01DX005 (ip), vehicle: saline with Tween-80
[9] = dose: 50.0 mg/kg/injection, schedule: Q01DX009 (ip), vehicle: saline
[10] = dose: 100.0 mg/kg/injection, schedule: Q01DX009 (ip), vehicle: saline
[11] = dose: 200.0 mg/kg/injection, schedule: Q01DX009 (ip), vehicle: saline
[12] = dose: 100.0 mg/kg/injection, schedule: Q01DX009 (ip), vehicle: saline with Tween-80
[13] = dose: 100.0 mg/kg/injection, schedule: Q04DX003 (ip), vehicle: saline with Tween-80
[14] = dose: 200.0 mg/kg/injection, schedule: Q01DX009 (ip), vehicle: saline with Tween-80
[15] = dose: 200.0 mg/kg/injection, schedule: Q04DX003 (ip), vehicle: saline with Tween-80
[16] = dose: 400.0 mg/kg/injection, schedule: Q01DX009 (ip), vehicle: saline with Tween-80
[17] = dose: 400.0 mg/kg/injection, schedule: Q04DX003 (ip), vehicle: saline with Tween-80
[18] = dose: 50.0 mg/kg/injection, schedule: Q01DX009 (ip), vehicle: saline with Tween-80

Measured: T/C

N#C/C(N)=C(\C#N)N=c1c(-c2ccccc2)c1-c1ccccc1
inactive: [1] 102 % of control and 103 % of control | [2] 103 % of control and 113 % of control | [3] 109 % of control and 122 % of control

COc1cc(C(C)c2cc3c(cc2O)OCO3)cc(OC)c1OC (centres undefined)
inactive: dose: 15.0 mg/kg/injection, schedule: Q01DX005 (ip), vehicle: saline with Tween-80 100 % of control | dose: 30.0 mg/kg/injection, schedule: Q01DX005 (ip), vehicle: saline with Tween-80 98 % of control | [4] 103 % of control and 107 % of control and 108 % of control | [5] 100 % of control and 114 % of control and 122 % of control | [6] 123 % of control | dose: 480.0 mg/kg/injection, schedule: Q01DX005 (ip), vehicle: saline with Tween-80 86 % of control

O=c1ccc2[n+]([O-])c3ccc(O)cc3oc-2c1
inactive: [7] 95 % of control | [8] 100 % of control

O=C1c2ccccc2NC(c2cc(Cl)cc(Cl)c2O)N1CCc1ccccn1 (centres undefined)
inactive: [9] 92 % of control | [10] 94 % of control

CN(C)C(=S)c1cccc(-c2ccccn2)n1
inactive: dose: 50.0 mg/kg/injection, schedule: Q04DX003 (ip), vehicle: Klucel (hydroxypropylcellulose) (HPC) 95 % of control | dose: 100.0 mg/kg/injection, schedule: Q04DX003 (ip), vehicle: Klucel (hydroxypropylcellulose) (HPC) 96 % of control | dose: 200.0 mg/kg/injection, schedule: Q04DX003 (ip), vehicle: Klucel (hydroxypropylcellulose) (HPC) 91 % of control

COc1ccc(CNCC#N)c(OC)c1
inactive: [7] 97 % of control | [8] 100 % of control

C=CCOc1cc(=O)[nH]c2ccccc12
inactive: dose: 60.0 mg/kg/injection, schedule: Q01DX005 (ip), vehicle: Klucel (hydroxypropylcellulose) (HPC) 100 % of control | dose: 120.0 mg/kg/injection, schedule: Q01DX005 (ip), vehicle: Klucel (hydroxypropylcellulose) (HPC) 97 % of control | dose: 240.0 mg/kg/injection, schedule: Q01DX005 (ip), vehicle: Klucel (hydroxypropylcellulose) (HPC) 91 % of control

COc1ccc2c(O)c(S(=O)(=O)c3ccc(C)cc3)c(=O)oc2c1
inactive: [4] 92 % of control | [5] 104 % of control | [6] 115 % of control

O=C1C(Cl)=C(NCC2CCCN3CCCCC23)C(=O)c2ccccc21 (centres undefined)
inactive: dose: 50.0 mg/kg/injection, schedule: Q01DX005 (ip), vehicle: saline 113 % of control | dose: 100.0 mg/kg/injection, schedule: Q01DX005 (ip), vehicle: saline 117 % of control

OCC1OC(Oc2ccc(O)cc2)C(O)C(O)C1O (centres undefined)
inactive: dose: 4.5 mg/kg/injection, schedule: Q01DX009 (ip), vehicle: Klucel (hydroxypropylcellulose) (HPC) 97 % of control | dose: 9.0 mg/kg/injection, schedule: Q01DX009 (ip), vehicle: Klucel (hydroxypropylcellulose) (HPC) 90 % of control | dose: 18.0 mg/kg/injection, schedule: Q01DX009 (ip), vehicle: Klucel (hydroxypropylcellulose) (HPC) 90 % of control | dose: 36.0 mg/kg/injection, schedule: Q01DX009 (ip), vehicle: Klucel (hydroxypropylcellulose) (HPC) 98 % of control | [9] 102 % of control | [10] 102 % of control | [11] 102 % of control | dose: 400.0 mg/kg/injection, schedule: Q01DX009 (ip), vehicle: saline 106 % of control

CCCCCCCCCCC(=O)CC
inactive: [12] 104 % of control | [13] 100 % of control | [14] 104 % of control | [15] 100 % of control | [16] 109 % of control | [17] 100 % of control

O=C(NC1CCCCC1)C(O)C(O)C(O)C(O)CO (centres undefined)
inactive: [1] 107 % of control | [2] 107 % of control | [3] 104 % of control

COC(=O)c1ccc(-c2cc(Cl)c3cc(S(=O)(=O)F)ccc3n2)cc1
inactive: [13] 95 % of control | [15] 90 % of control | [17] 90 % of control

C[n+]1cccc(C(=O)OCC(C)(C)N(Cl)Cl)c1
inactive: [9] 109 % of control

O=c1[nH]cc(Cn2cccc3c(=O)ncnc2-3)c(=O)[nH]1
inactive: dose: 100.0 mg/kg/injection, schedule: Q01DX001 (ip), vehicle: suspension in saline 93 % of control | dose: 200.0 mg/kg/injection, schedule: Q01DX001 (ip), vehicle: suspension in saline 102 % of control

Cc1ccc(NC(=O)OCCN(C)C)cc1Cl
inactive: dose: 60.0 mg/kg/injection, schedule: Q01DX005 (ip), vehicle: Klucel + Tween-80 101 % of control | dose: 120.0 mg/kg/injection, schedule: Q01DX005 (ip), vehicle: Klucel + Tween-80 99 % of control | dose: 240.0 mg/kg/injection, schedule: Q01DX005 (ip), vehicle: Klucel + Tween-80 91 % of control

O=c1oc2c(cc1-c1ccccc1)CCCC2
inactive: [1] 102 % of control | [2] 104 % of control | [3] 103 % of control

O=C(Nc1nccs1)C(F)(F)F
inactive: [18] 104 % of control | [12] 104 % of control | [14] 99 % of control | [16] 108 % of control

Cc1cccc(OCC(O)CNC(C)(C)C)c1C (centres undefined)
inactive: dose: 12.5 mg/kg/injection, schedule: Q01DX009 (ip), vehicle: saline with Tween-80 99 % of control | dose: 25.0 mg/kg/injection, schedule: Q01DX009 (ip), vehicle: saline with Tween-80 98 % of control | [18] 99 % of control | [12] 99 % of control

ClC(Cl)=Nc1cc(Cl)c(Cl)cc1Cl
inactive: [9] 99 % of control | [10] 90 % of control | [11] 97 % of control

COc1ccc(C2ON=C(c3cc(C)cc(Br)c3O)C2[N+](=O)[O-])cc1 (centres undefined)
inactive: dose: 100.0 mg/kg/injection, schedule: Q04DX002 (ip), vehicle: saline with Tween-80 90 % of control | dose: 200.0 mg/kg/injection, schedule: Q04DX002 (ip), vehicle: saline with Tween-80 94 % of control | dose: 400.0 mg/kg/injection, schedule: Q04DX002 (ip), vehicle: saline with Tween-80 94 % of control

CC(C#N)(C#N)N=Nc1ccc(Br)cc1
inactive: [7] 106 % of control | [8] 105 % of control

COc1cc2c(cc1OC)C(=O)C(Br)CC2 (centres undefined)
inactive: [18] 104 % of control | [12] 113 % of control

CC1CCC(C(C)(C)c2ccccc2)C(OC(=O)C2C3CCC=C3C3CC(C)(C)CC32)C1 (centres undefined)
inactive: dose: 21.25 mg/kg/injection, schedule: Q01DX005 (ip), vehicle: saline with Tween-80 99 % of control | dose: 42.5 mg/kg/injection, schedule: Q01DX005 (ip), vehicle: saline with Tween-80 96 % of control | dose: 85.0 mg/kg/injection, schedule: Q01DX005 (ip), vehicle: saline with Tween-80 100 % of control

O=C1N=c2ccc(Br)cc2=C1c1sc(=O)n(Cc2nc3ccccc3[nH]2)c1O
inactive: dose: 100.0 mg/kg/injection, schedule: Q01DX001 (ip), vehicle: Klucel (hydroxypropylcellulose) (HPC) 95 % of control | dose: 200.0 mg/kg/injection, schedule: Q01DX001 (ip), vehicle: Klucel (hydroxypropylcellulose) (HPC) 93 % of control | dose: 400.0 mg/kg/injection, schedule: Q01DX001 (ip), vehicle: Klucel (hydroxypropylcellulose) (HPC) 90 % of control

CC(=O)[C-](Cl)C(C)=O.CC(=O)[C-](Cl)C(C)=O.CC(=O)[C-](Cl)C(C)=O.[Ru+3]
inactive: [4] 111 % of control | [5] 109 % of control | [6] 98 % of control

CCN(CC)[P+](c1ccccc1O)(N(CC)CC)N(CC)CC
inactive: dose: 1.56 mg/kg/injection, schedule: Q01DX009 (ip), vehicle: saline 100 % of control | dose: 3.12 mg/kg/injection, schedule: Q01DX009 (ip), vehicle: saline 101 % of control
